Source: patent US4367226A, “N-Sugar compounds, compositions and uses thereof” (priority 1980, dated 1983)
In brackets after ≈: the same amount, converted by molar mass.

How the values were obtained:
Aspergillus niger = assay: Broth dilution MIC / antimicrobial test against Aspergillus niger (A.T.C.C. 1015); format: cell-based; details: 25°
Description: (§1) In testing for the anti-microbial activity five different types of organics were selected: Staphyloccoccus aureus, Escherichia coli, Pseudomonas aeruginosa, Candida albicans, and Aspergillus niger. The inclusion of Asperigillus niger and Pseudomonas aeruginosa in the inocula is recommended to ensure a wide range of protection because these ubiquitous organisms grow in a large variety of formulations and relatively resistant to antimicrobial agents. The incidence of contaminated cosmetics has been the subject of several investigations ^(6)(7). Pseudomonas was the predominant organism found.
(§2) One Gram-positive, two Gram-negative bacteria, one each of a yeast and a mold were selected for the test. These were, respectively, Staphylococcus aureus(A.T.C.C. 6538), Escherichia coli(A.T.C.C. 11229), Pseudomonas aeruginosa(A.T.C.C. 15442), Candida albicans(A.T.C.C. 10259), and Aspergillus niger(A.T.C.C. 1015).
(§3) Portions of four or five discrete colonies representative of the organisms to be tested were inoculated into 10.0 ml. of a suitable broth medium and marked accordingly. The inoculated tubes were incubated at 37° for S. aureus, E. coli, and P. aeruginosa, and at 25° for C. albicans and A. niger for 18-24 hours.
Medium: Trypticase Soy Agar(BBL) was used for bacteria, and Sabouraud Maltose Agar(BBL) for the yeast and the mold. […]

Candida albicans = assay: Broth dilution MIC / antimicrobial test against Candida albicans (A.T.C.C. 10259); format: cell-based; details: 25°
Description: as §1, §2, §3
(§4) Medium: Trypticase Soy Agar(BBL) was used for bacteria, and Sabouraud Maltose Agar(BBL) for the yeast and the mold.
(§5) Inoculation of agar plates and incubation: A 10 cm. round plastic plate was used for the preparation of medium. Each plate was divided into four areas by marking on the bottom of the plate. The agar plate was streaked by the appropriate inoculation loop. Three thin loopful of inocula were applied for covering the complete agar plate. Approximately 10-15 mg. of compound to be tested was placed at the corresponding area of each inoculated plate. The plates inoculated with S. aureus, E. coli, and P. aeruginosa were incubated at 37° for 24-48 hours, and those incubated with C. albicans and A. niger were incubated at 25° for 48-72 hours. […]

Escherichia coli = assay: Broth dilution MIC / antimicrobial test against Escherichia coli (A.T.C.C. 11229); format: cell-based; details: 37°
Description: as §1, §2, §3, §4, §5

Pseudomonas aeruginosa = assay: Broth dilution MIC / antimicrobial test against Pseudomonas aeruginosa (A.T.C.C. 15442); format: cell-based; details: 37°
Description: as §1, §2, §3, §4, §5

Staphylococcus aureus = assay: Broth dilution MIC / antimicrobial test against Staphylococcus aureus (A.T.C.C. 6538); format: cell-based; details: for activity against S. aureus (in words): 37°
Description: as §1, §2, §3, §4
Inoculation of agar plates and incubation: A 10 cm. round plastic plate was used for the preparation of medium. Each plate was divided into four areas by marking on the bottom of the plate. The agar plate was streaked by the appropriate inoculation loop. Three thin loopful of inocula were applied for covering the complete agar plate. Approximately 10-15 mg. of compound to be tested was placed at the corresponding area of each inoculated plate. The plates inoculated with S. aureus, E. coli, and P. aeruginosa were incubated at 37° for 24-48 hours, and those incubated with C. albicans and A. niger were incubated at 25° for 48-72 hours.
Interpretation and result: After incubation, if a zone of inhibition was visible around the compound placed, the susceptibility of the organism to the compound was considered to be positive. The degree of positiveness of the compound was decided by the size of the zone.
The broth dilution method was chosen for the determination of the MIC. A 10^-1 molar stock solution was prepared by dissolving or suspending the required amount of compound in the sterilized distilled water. The desired number of sterile test tubes were aseptically filled with 9.0 ml. of Trypticase Soy Broth(BBL). 1.0 ml. of the stock solution was added to the first tube and mixed thoroughly. With a sterile pipette, 1.0 ml. was transferred from the first tube to the second tube. […]

bacterial growth = assay: Preservative action in cosmetic formulations; details: for preservation against bacterial combination: Examples I and III of U.S. Pat. No. 3,957,970, replacing the 0.05% preservative by an equal amount
Description: The compositions of this invention are of particular utility in aqueous cosmetic formulations to inhibit bacterial growth. Reference is hereby made to cosmetic formulations as disclosed in the following U.S. Pat. Nos.: (1) 4,159,318 (2) 4,164,564, (3) 4,137,302, (4) 4,148,875, (5) 4,001,141, (6) 4,048,338, (7) 3,919,430 and (8) 3,957,970 as exemplary of formulations with which the present thioureas and thiazoles can be used; thus, Example 4 of U.S. Pat. No. 4,137,302 discloses ethyl p-dimethylaminobenzoate (0.75%).
In Example 6 of U.S. Pat. No. 4,048,338, the 0.18 parts of methyl p-hydroxybenzoate is replaced by equal parts of the compound of Example 10 on the one hand and that of Example 12 on the other hand.
Each of the foregoing U.S. Patents (1) to (8) is hereby incorporated by reference thereto.

[1] = LD50 test (acute toxicity, intraperitoneal); format: in vivo, Charles River CD-1 male mice; details: 2000 mg/kg, one mouse
Description: The toxicity of some of the compounds was ascertained in an LD50 test.
The LD50 tests were performed for the following compounds; N-β-D-glucopyranosyl-N'-n-butylthiourea, N-β-D-glucopyranosyl-N'-benzylthiourea, N-β-D-glucopyranosyl-piperidine-1-thiocarboxamide, N-β-D-glucopyranosylthiourea, and ethyl 2-(N-β-D-glucopyranosyl)aminothiazole-4-carboxylate. The compounds were administered intraperitoneally dissolved or suspended in normal saline by 20-25 gm Charles River CD-1 male mice.
Two animals received 1000 mg/kg and one animal received 2000 mg/kg. With the exception of the animal given by ethyl 2-(N-β-D-glucopyranosyl)aminothiazole-4-carboxylate at 2000 mg/kg, all animals survived the acute effects and appeared normal after 1 week.

[2] = Example 6 of U.S. Pat. No. 4,048,338, replacing 0.18 parts of methyl p-hydroxybenzoate by equal parts

Compound | activity against A. niger (in words) (Aspergillus niger) | activity against C. albicans (in words) (Candida albicans) | activity against E. coli (in words) (Escherichia coli) | activity against P. aeruginosa (in words) (Pseudomonas aeruginosa) | activity against S. aureus (in words) (Staphylococcus aureus) | MIC (Staphylococcus aureus; Staphylococcus aureus, S. aureus A.T.C.C. 6538, broth dilution, 24-48 hours at 37°, read-out: M.I.C. (Minimal Inhibitory Concentration)) [µM] | preservative action (bacterial growth; Example 4 of U.S. Pat. No. 4,137,302, in lieu of ethyl p-dimethylaminobenzoate (0.75%)) | preservative action (bacterial growth; [2]) | preservation against bacterial combination (bacterial growth) | death [1]
CCCCNC(=S)N[C@@H]1O[C@H](CO)[C@@H](O)[C@H](O)[C@H]1O [Example 2, N-β-D-Glucopyranosyl-N'-n-butylthiourea] | particularly outstanding activity | particularly outstanding activity |  |  |  |  |  |  |  | 
OC[C@H]1O[C@@H](NC(=S)NCc2ccccc2)[C@H](O)[C@@H](O)[C@@H]1O [Example 5, N-β-D-Glucopyranosyl-N'-benzylthiourea] |  |  | particularly outstanding activity | particularly outstanding activity |  |  |  |  |  | 
C=CCNC(=S)N[C@@H]1O[C@H](CO)[C@@H](O)[C@H](O)[C@H]1O [Example 10, N-β-D-Glucopyranosyl-N'-allylthiourea] |  |  |  |  | particularly outstanding activity | 100 (≈ 27.8 µg/mL) | excellent preservative action | excellent preservative action | excellent preservation against bacterial combination | 
OC[C@H]1O[C@@H](NC(=S)N2CCCCC2)[C@H](O)[C@@H](O)[C@@H]1O [Example 11, N-β-D-Glucopyranosylpiperidine-1-thiocarboxamide] |  |  |  | particularly outstanding activity |  |  |  |  |  | 
OC[C@H]1O[C@@H](NC(=S)NCc2ccc(Cl)cc2)[C@H](O)[C@@H](O)[C@@H]1O [Example 12, N-β-D-Glucopyranosyl-N'-4-chlorobenzylthiourea] |  | broad inhibitory activities | broad inhibitory activities |  | broad inhibitory activities |  |  | excellent preservative action | excellent preservation against bacterial combination | 
Br.CCOC(=O)c1csc(N[C@@H]2O[C@H](CO)[C@@H](O)[C@H](O)[C@H]2O)n1 [Example 15, Ethyl 2-(N-β-D-glucopyranosyl)aminothiazole-4-carboxylate hydrobromide] | not against A. Niger | broad activities against 4 organisms | broad activities against 4 organisms | broad activities against 4 organisms | broad activities against 4 organisms |  |  |  | excellent preservation against bacterial combination | dying two days later
